What was measured:
Assay in all cases: Post-emergence action against weeds, greenhouse pot test
Assay type in all cases: in vivo
[1] = system: Triticum aestivum (TRZAS)
Method: (§1) Seeds or rhizome pieces of mono- and dicotyledonous harmful and useful plants were placed in peat pots (diameter 4 cm) filled with sandy loam and then covered with soil. The pots were kept in a greenhouse under optimum conditions. In addition, harmful plants encountered in paddy rice cultivation were cultivated in pots with a water level 2 cm above the soil surface.
(§2) About three weeks after the start of the cultivation, the test plants were treated at the 2- to 3-leaf stage. The herbicides, formulated as powder or liquid concentrates, were, either alone or in the combinations according to the invention, sprayed in various dosages on to the green parts of the plants using an application rate of 600 l of water/ha (converted). For further cultivation of the plants, the pots were then again kept under optimum conditions in a greenhouse.
(§3) The visual scoring of the herbicidal effects was carried out in intervals up to 21 days after the treatment. Scoring was carried out in percent in comparison to the untreated control plants. 0%=no herbicidal activity, 100%=complete herbicidal activity=complete kill.
(§4) The percentages from the treatments with the herbicides alone (=individual application) and with the combinations according to the invention (=mixtures) were employed to calculate interactions using the method of Colby. When the observed efficacies of the mixtures exceed the formal sum of the values of the tests with individual applications, they also exceed the expected value according to Colby, which is calculated using the formula below (cf. S. R. Colby; in Weeds 15 (1967) pp. 20 to 22):
(§5) • A, B=activity of components A and B in percent at a dosage of a and b g of ai/ha (=gram of active substance per hectare), respectively. • E=expected value in % at a dosage of a+b g of ai/ha.

Oryza sativa (ORYSA) = system: Oryza sativa (ORYSA)
Method: as §1, §2, §3, §4, §5

Zea mays (ZEAMX) = system: Zea mays (ZEAMX)
Method: as §1, §2, §3, §4, §5

[2] = system: Fallopia (ex Polygonum) convolvulus (POLCO); conditions: 21 DAT; B 50 g of ai/ha
Method: as §1
as §2, with “greenhouse. […]” for “greenhouse.”
as §4, with “22): […]” for “22):”

Viola tricolor (VIOTR) = conditions: 21 DAT; B 50 g of ai/ha
Method: as §1, §2, §3, §4, §5

Setaria viridis (SETVI) = conditions: 21 DAT; B 50 g of ai/ha
Method: as §1, §2, §3, §4, §5

[3] = system: Matricaria inodora (MATIN); conditions: 21 DAT; B 50 g of ai/ha
Method: as §1, §2, §3, §4, §5

[4] = system: Alopecurus myosuroides (ALOMY); conditions: 21 DAT
Method: as §1, §2, §3, §4, §5

SMILES	% activity found ([1]; 21 DAT, A 12 g of ai/ha)	% activity found (Oryza sativa (ORYSA); 10/21 DAT, A 4 g of ai/ha)	% activity found (Zea mays (ZEAMX); 21 DAT, A 4 g of ai/ha)	% activity found [2]	% activity found (Viola tricolor (VIOTR))	% activity found ([1]; 10 DAT, B 50 g of ai/ha)	% activity found ([1]; 10 DAT, B 150 g of ai/ha)	% activity found ([1]; 21 DAT, B 50 g of ai/ha)	% activity found (Setaria viridis (SETVI))	% activity found [3]	% activity found ([4]; B 50 g of ai/ha)	% activity found ([4]; B 150 g of ai/ha)	% activity found (Oryza sativa (ORYSA); 10/21 DAT, B 50 g of ai/ha)	% activity found (Oryza sativa (ORYSA); 10/21 DAT, B 150 g of ai/ha)	% activity found (Oryza sativa (ORYSA); 21 DAT, B 150 g of ai/ha)	% activity found (Zea mays (ZEAMX); 10 DAT, B 50 g of ai/ha)	% activity found (Zea mays (ZEAMX); 10 DAT, B 150 g of ai/ha)	% activity found (Zea mays (ZEAMX); 21 DAT, B 50 g of ai/ha)	% activity found (Zea mays (ZEAMX); 21 DAT, B 150 g of ai/ha)
COc1nc(OC)nc(C(=O)c2cccc(F)c2N(C)S(=O)(=O)C(F)F)n1 [A-1]	0%	0%	0%	–	–	–	–	–	–	–	–	–	–	–	–	–	–	–	–
CP(=O)(O)CC[C@H](N)C(=O)O [B1-8, (2S)-2-amino-4-[hydroxy(methyl)phosphinyl]butanoic acid]	–	–	–	40%	40%	20%	30%	20%	80%	60%	0%	20%	10%	30%	30%	30%	40%	0%	0%

Reference: patent US20100069249A1, “HERBICIDE COMBINATION COMPRISING DIMETHOXYTRIAZINYL-SUBSTITUTED DIFLUOROMETHANESULFONYLANILIDES” (BAYER CROPSCIENCE AG, priority 2008, published 2010)
